Measurements as given in the NIST ThermoML archive (doi:10.1021/acs.jced.6b00202).

COC(C)(C)C [2-methoxy-2-methylpropane]
Liquid, Brillouin light scattering
Conditions	speed of sound [m/s]
388.22 K, 1000 kPa	646.4
388.24 K, 2500 kPa	670.7
388.24 K, 10000 kPa	768.1
388.25 K, 8500 kPa	751.1
393.11 K, 5500 kPa	691.8
393.13 K, 1000 kPa	619
393.13 K, 4000 kPa	669.1
393.13 K, 8500 kPa	736.3
393.16 K, 2500 kPa	643.2
393.22 K, 7000 kPa	714.5
393.22 K, 10000 kPa	753.4
398.1 K, 5500 kPa	671.4
398.11 K, 1000 kPa	594.9
398.18 K, 2500 kPa	624.4
398.18 K, 4000 kPa	647.1
398.2 K, 8500 kPa	715.9
398.24 K, 10000 kPa	733.5
398.25 K, 7000 kPa	692.8
403.07 K, 7000 kPa	672.1
403.11 K, 2500 kPa	602.6
403.12 K, 1000 kPa	574.7
403.12 K, 4000 kPa	627.2
403.14 K, 5500 kPa	649.2
403.14 K, 10000 kPa	716.1
403.16 K, 8500 kPa	697.5
408.09 K, 7000 kPa	657.5
408.16 K, 4000 kPa	605.6
408.19 K, 5500 kPa	631.8
408.21 K, 8500 kPa	679.5
408.23 K, 2500 kPa	576.4
408.24 K, 10000 kPa	697.8
413.06 K, 10000 kPa	682.3
413.08 K, 4000 kPa	585.4
413.14 K, 8500 kPa	661.5
413.16 K, 5500 kPa	612.9
413.19 K, 2500 kPa	557.9
413.24 K, 7000 kPa	638.1
418.07 K, 4000 kPa	565.2
418.07 K, 7000 kPa	617.5
418.08 K, 10000 kPa	661.5
418.11 K, 8500 kPa	639.1
418.19 K, 2500 kPa	535.7
418.23 K, 5500 kPa	588.6
423.05 K, 7000 kPa	595.1
423.06 K, 2500 kPa	511.7
423.06 K, 4000 kPa	541.9
423.11 K, 8500 kPa	624.1
423.12 K, 10000 kPa	647.8
423.19 K, 5500 kPa	571.4
428.11 K, 2500 kPa	485.7
428.14 K, 5500 kPa	549.7
428.15 K, 7000 kPa	575.1
428.18 K, 4000 kPa	520.9
428.19 K, 8500 kPa	605.5
428.2 K, 10000 kPa	625.5
433.05 K, 2500 kPa	463.5
433.05 K, 7000 kPa	560.1
433.08 K, 10000 kPa	610.8

Conditions	speed of sound [m/s]
393.16 K, Liquid, Brillouin Light Scattering	609.1
398.07 K, Gas, Brillouin light scattering	170
398.11 K, Liquid, Brillouin Light Scattering	580.1
403.24 K, Liquid, Brillouin Light Scattering	558
408.22 K, Gas, Brillouin light scattering	167.8
408.23 K, Liquid, Brillouin Light Scattering	537.6
413.2 K, Liquid, Brillouin Light Scattering	515.8
418.16 K, Gas, Brillouin light scattering	164.7
418.24 K, Liquid, Brillouin Light Scattering	494.4
423.15 K, Liquid, Brillouin Light Scattering	476
428.21 K, Gas, Brillouin light scattering	161.2
428.24 K, Liquid, Brillouin Light Scattering	453.8
433.05 K, Liquid, Brillouin Light Scattering	430.3
